In patent US20240415845A1, “Compositions of Iboga Alkaloids and Methods of Treatment” (priority 2022, published 2024):

System: special operations veterans with combat and/or blast exposure
Experiment: Functional MRI: resting-state functional connectivity and lag projection analysis
Type: in vivo, human
Protocol: Functional magnetic resonance imaging (fMRI) was performed on the subjects enrolled in the study described in Example 1. Neuroimaging is a branch of medical imaging that focuses on the brain. It utilizes techniques of physics, optics, and mathematics to quantify brain structure and function. […] During resting, subjects are asked to do nothing and the aim is to observe the brain at rest. When the subject is asked to perform a task, the aim is to observe how the brain works in response to the task. Other magnetic resonance based imaging techniques include: anatomical, which measures cortical thickness, area, gyrification, and volume: arterial spin labelling, which quantitatively measures tissue perfusion, cerebral blood flow, where perfusion refers to the delivery of oxygen and nutrients to tissue by means of blood flow: and, diffusion tensor imaging, which measures diffusion of water through white natter, such as neural fiber tracts. fMRI can provide a series of images that form a film, as opposed to a single image obtained in MRI.
The human brain is a series of well-organized and optimized series of efficient networks. […] The functional connectivity networks evaluated in a region of interest in the brain included those identified in Table 2-1 of Example 2.
fMRI data was also analyzed to inspect activity patterns as a function of time. […]

Compound: CCC1CC2CC3c4[nH]c5ccc(OC)cc5c4CCN(C2)C13 (centres unmarked) [ibogaine, Ibogaine]
- lag projection of BOLD fMRI in left orbitofrontal gyrus and inferior frontal gyrus (baseline vs about four days post treatment, paired T-test, fwec p<0.001): relative slowing
- functional connection pairs in the brain networks reorganized (resting state functional connectivity) (within a few days after treatment, persisted to one-month post treatment): 22
